The text below walks through data of patent publication US20050164323A1, “Methods of treating asthma” (Wyeth, priority 2003, published 2005).

Broadly, the kcat is the number of substrate molecules converted per active site and unit of time at saturation.

“Also recorded” adds a separate entry of the source. Non-standard residues stand in square brackets, D forms with d. Residues, ends and D or L forms follow the SMILES beside them. pS = N[C@@H](COP(=O)(O)O)C(=O)O Bounds are passed on as bounds.

Holding throughout (type): biochemical
The target of assay [1] is T1, PKC-θ KD (Homo sapiens, UniProt Q04759).
T1 construct: PKC-θ KD (amino acid residues 362 to 706) was cloned into a pET16b expression vector; hexa-histidine (C); Met-Gly (non-native N-terminal residues) (N); made in house; host or cells: E. coli BL21-DE3 (pET16b)
T1 sequence (Q04759 with tags, fused parts or gaps): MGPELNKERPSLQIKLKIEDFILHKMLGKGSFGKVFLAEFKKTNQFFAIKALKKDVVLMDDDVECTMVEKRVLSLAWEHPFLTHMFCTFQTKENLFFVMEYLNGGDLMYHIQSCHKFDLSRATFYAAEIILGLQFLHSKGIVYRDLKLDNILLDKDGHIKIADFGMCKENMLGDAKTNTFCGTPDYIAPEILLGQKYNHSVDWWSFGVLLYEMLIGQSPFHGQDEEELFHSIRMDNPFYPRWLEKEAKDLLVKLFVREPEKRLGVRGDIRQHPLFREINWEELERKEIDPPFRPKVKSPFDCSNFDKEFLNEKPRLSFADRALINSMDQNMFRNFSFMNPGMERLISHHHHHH
Briefly: coupled PK/LDH assay: steady-state kinetics, product and dead-end inhibition of PKC-θ KD. The following applies: for substrate inhibition: high peptide concentrations.

Assay [2] has as its target T1, PKC-θ KD. Briefly: HPLC assay: thio effect with ATPγS and product inhibition with ADP. To be noted: for pattern / Ki: product inhibition; for appKm / rate: peptide1 used in assay.
Assay [3] has as its target T1, PKC-θ KD. Briefly: solvent viscosity studies (sucrose, Ficoll 400) on steady state kinetic parameters. The following applies: from viscosity analysis. Here is the method:
Next, solvent viscosity studies were performed. Steady state kinetic parameters were determined in the buffer described above for the enzyme kinetics assays containing varied sucrose (0-35%) or Ficoll 400 (0-8%). Relative solvent viscosities (η^ref) were determined in triplicate relative to 25 mM HEPES pH 7.5, 10 mM MgCl2, 2 mM DTT and 100 mM NaCl at 25° C. using an Ostwald viscometer. Buffer with no viscogen is indicated with a superscript of 0. The coupling enzyme system was unaffected by the presence of these viscogens. Thio effect studies with ATPγS and product inhibition studies with ADP were analyzed on a Hewlett Packard series 1100 HPLC using a Phenomenex Auga […] C18 124 A^0 50 mm×4.60 […] column (00B-4299-E0). Phosphorylated peptide was separated from non-phosphorylated peptide using a gradient of 0% to 100% 20 mM phosphate pH 8.8/acetonitrile (50/50). The fluorescein-labeled peptide was detected by excitation at 485 nm and monitoring the fluorescence emission at 530 nm.
To determine if the chemical step is the lone contributor to the rate of the reaction, the effect of solvent viscosity on the steady state kinetic parameters for PKC-θ was determined. Two types of viscogens were employed in this study, the microviscogen sucrose and the macroviscogen Ficoll-400. […]

The mark [4] stands for this setting: varied peptide substrate, saturating ATP.
The mark [5] stands for this setting: substrate inhibition, fit to equation (2), saturating ATP, read-out: Ki peptide.
[6] abbreviates: dead-end inhibition against peptide 1 at saturating ATP (AMP-PNP up to 2.0 mM).
The mark [7] stands for this setting: dead-end inhibition, varied substrate ATP, 100 mM NaCl.
[8] abbreviates: varied substrate peptide3, saturating ATP, 100 mM NaCl, read-out: Kis.

As to `Nc1ncnc2c1ncn2[C@@H]1O[C@H](COP(=O)(O)OP(=O)(O)OP(=O)(O)O)[C@@H](O)[C@H]1O` [ATP, adenosine triphosphate], the “appKm ATP” value on PKC-θ KD [1] (0 mM NaCl, 0.2 mM peptide1) amounted to 25 ± 5 µM. Also, the kcat was 22 ± 1 s⁻¹ on PKC-θ KD [1] (100 mM NaCl, fit to equation (1)); 24 ± 1 s⁻¹ on PKC-θ KD [1] (250 mM NaCl, fit to equation (1)); 18 s⁻¹ at PKC-θ KD [1] (varied ATP, peptide1 present). In addition, the “ATP hydrolysis slower in absence of peptide substrate than when peptide is present” value on PKC-θ KD [1] (no peptide vs peptide present) was determined as 110 times.
Regarding “RTPKLARQASIELPSM [peptide4, substrate derived from the phosphorylation site in lymphocyte-specific protein-1]”, the substrate inhibition entry with PKC-θ KD [1] is given as “not observed”. Besides, in the assay with PKC-θ KD [1] (setting [4]), the appKm turned out to be 240 ± 16 µM and the turnover number (kcat) was 14 ± 1 s⁻¹. Moreover, in the assay with PKC-θ KD [1] (varied peptide substrate, saturating ATP, listed as peptide 4), the appKm was 240 µM.
Turning to `Nc1ncnc2c1ncn2[C@@H]1O[C@H](COP(=O)(O)OP(=O)(O)O)[C@@H](O)[C@H]1O` [ADP], the “inhibition pattern in words” value at PKC-θ KD [2] (against ATP at saturating peptide 1) is “competitive inhibitor; also recorded: competitive pattern”; on PKC-θ KD [2] (against peptide 1 at non-saturating ATP (0.1 mM)) it was “non-competitive pattern”; against PKC-θ KD [2] (against peptide 1 at saturating ATP), “no inhibition observed”. Further, the pattern entry on PKC-θ KD [2] (varied substrate ATP, saturating peptide 1, 100 mM NaCl) is “c (c, competitive)”; on PKC-θ KD [2] (varied substrate peptide1, ATP held at 0.1 mM, 100 mM NaCl), “nc (nc, noncompetitive)”. Also, the Ki on PKC-θ KD [2] (varied substrate ATP, saturating peptide 1, 100 mM NaCl, read-out: Kis) came out at 291 µM; on PKC-θ KD [2] (varied substrate peptide1, ATP held at 0.1 mM, 100 mM NaCl, read-out: Kii) it was 200 µM; on PKC-θ KD [2] (varied substrate peptide1, ATP held at 0.1 mM, 100 mM NaCl, read-out: Kis) it was 494 µM.
On to `Nc1ncnc2c1ncn2[C@@H]1O[C@H](COP(=O)(O)OP(=O)(O)OP(O)(O)=S)[C@@H](O)[C@H]1O` [ATPγS], for which, on PKC-θ KD [2] (100 mM NaCl), the “ratio ATP/ATPγS of appKm” value came to 2.1, the “ratio ATP/ATPγS of rate (thio effect)” value is 112, the appKm was 120 ± 9 µM and the rate was 1.6 ± 0.1 peak area/(reaction time in minutes)([enzyme] nM). In addition, at PKC-θ KD [2] (250 mM NaCl), the “ratio ATP/ATPγS of appKm” value worked out at 1.8, the “ratio ATP/ATPγS of rate (thio effect)” value turned out to be 146, the appKm is 130 ± 5 µM and the rate is 1.3 ± 0.1 peak area/(reaction time in minutes)([enzyme] nM).
Consider `CC(C)C[C@H](NC(=O)[C@H](CO)NC(=O)CNC(=O)[C@H](CCCCN)NC(=O)[C@H](CCCNC(=N)N)NC(=O)[C@H](C)NC(=O)[C@H](Cc1ccccc1)NC(=O)[C@@H](N)CCCNC(=N)N)C(=O)N[C@@H](CCCNC(=N)N)C(=O)N[C@@H](CCC(N)=O)C(=O)N[C@@H](CCCCN)C(=O)N[C@@H](CC(N)=O)C(=O)N[C@H](C(=O)O)C(C)C` [peptide2] (H-RFARKGSLRQKNV-OH; N-terminus and C-terminus assumed), for which, on PKC-θ KD [1], the substrate inhibition entry is “observed”. For the same molecule, the Ki at PKC-θ KD [1] (setting [5]) was found to be 306 ± 57 µM. The appKm at PKC-θ KD [1] (setting [4]) was determined as 4.3 ± 0.8 µM; at PKC-θ KD [1] (varied peptide substrate, saturating ATP, listed as peptide 2), 4.3 µM.
With `CC(C)C[C@H](NC(=O)[C@H](C)NC(=O)CNC(=O)[C@H](CCCCN)NC(=O)[C@H](CCCNC(=N)N)NC(=O)[C@H](C)NC(=O)[C@@H](N)Cc1ccccc1)C(=O)N[C@@H](CCCNC(=N)N)C(=O)N[C@@H](CCC(N)=O)C(=O)O` [peptide5] (H-FARKGALRQ-OH; N-terminus and C-terminus assumed), the “inhibition pattern in words” value is listed as “competitive inhibitor” against PKC-θ KD [1] (against peptide 3 at saturating ATP); “uncompetitive inhibitor” at PKC-θ KD [1] (dead-end inhibition against ATP, listed as Peptide 5); “un-competitive” on PKC-θ KD [1] (dead-end inhibition against ATP, listed as peptide 5); “competitive inhibitor” on PKC-θ KD [1] (setting [6]). Also, the pattern result on PKC-θ KD [1] (setting [7]) is “uc (uc, uncompetitive)”; at PKC-θ KD [1] (dead-end inhibition, varied substrate peptide1, saturating ATP, 100 mM NaCl), “c (c, competitive)”; on PKC-θ KD [1] (varied substrate peptide3, saturating ATP, 100 mM NaCl) it was “c (c, competitive)”. Further, the Ki at PKC-θ KD [1] (dead-end inhibition, varied substrate ATP, 100 mM NaCl, read-out: Kii) is 1100 µM; on PKC-θ KD [1] (dead-end inhibition, varied substrate peptide1, saturating ATP, 100 mM NaCl, read-out: Kis) it was 10 µM; at PKC-θ KD [1] (setting [8]), 4.4 µM.
For `Nc1ncnc2c1ncn2[C@@H]1O[C@H](COP(=O)(O)OP(=O)(O)NP(=O)(O)O)[C@@H](O)[C@H]1O` [AMP-PNP], the “inhibition pattern in words” value against PKC-θ KD [1] (dead-end inhibition against ATP) is given as “competitive inhibitor”; against PKC-θ KD [1] (setting [6]) it was “no observed inhibition”. For the same molecule, on PKC-θ KD [1] (setting [7]), the pattern entry is “c (c, competitive)”. At PKC-θ KD [1] (dead-end inhibition, varied substrate ATP, 100 mM NaCl, read-out: Kis), the Ki came out at 228 µM.
On to “LKRSLSEM [peptide3, substrate derived from the phosphorylation site in serum response factor]”, for which the substrate inhibition result in the assay with PKC-θ KD [1] is reported as “not observed”. In the assay with PKC-θ KD [1] (setting [4]), the appKm came to 420 ± 21 µM and the kcat is 21 ± 1 s⁻¹. In the assay with PKC-θ KD [1] (varied peptide substrate, saturating ATP, listed as Peptide 3), this molecule gave an appKm of 420 µM. Further, the stickiness of substrate result with PKC-θ KD [3] is listed as “not sticky”.
For `CC(C)C[C@H](NC(=O)[C@H](COP(=O)(O)O)NC(=O)CNC(=O)[C@H](CCCCN)NC(=O)[C@H](CCCNC(=N)N)NC(=O)[C@H](C)NC(=O)[C@@H](N)Cc1ccccc1)C(=O)N[C@@H](CCCNC(=N)N)C(=O)N[C@@H](CCC(N)=O)C(=O)O` [phosphopeptide1] (H-FARKG[pS]LRQ-OH), the Ki at PKC-θ KD [1] (varied substrate ATP, peptide3 held at 0.5 mM, 100 mM NaCl, read-out: Kii) amounted to 1600 µM; on PKC-θ KD [1] (varied substrate peptide3, ATP held at 0.1 mM, 100 mM NaCl, read-out: Kii), 2000 µM; on PKC-θ KD [1] (varied substrate peptide3, saturating ATP, 100 mM NaCl, read-out: Kii) it was 1200 µM; on PKC-θ KD [1] (setting [8]) it was 1700 µM.
Consider `CC(C)C[C@H](NC(=O)[C@H](CO)NC(=O)CNC(=O)[C@H](CCCCN)NC(=O)[C@H](CCCNC(=N)N)NC(=O)[C@H](C)NC(=O)[C@@H](N)Cc1ccccc1)C(=O)N[C@@H](CCCNC(=N)N)C(=O)N[C@@H](CCC(N)=O)C(=O)O` [peptide1] (H-FARKGSLRQ-OH), for which the Ki at PKC-θ KD [1] (0 mM NaCl, read-out: substrate inhibition) is 129 µM; at PKC-θ KD [1] (50 mM NaCl, substrate inhibition, read-out: Ki peptide1), 201 ± 85 µM; at PKC-θ KD [1] (100 mM NaCl, substrate inhibition, read-out: Ki peptide1), above 2000 µM; on PKC-θ KD [1] (setting [5]), above 2000 µM.
